{
  "source": "patent US4912036A",
  "about": "“Rapid differentiation of bacteria using cyclic polypeptide antibiotics” (Eastman Kodak Company, priority 1986, dated 1990)",
  "key": {"S. aureus [1]": {"test_system": "S. aureus", "experiment": "DCIP reduction solution assay, ΔOD 620 nm", "assay_type": "cell-based, Staphylococcus aureus", "conditions": "S. aureus (+) 5×10^7, gramicidin S 0.00625 mg/ml, 37° C.", "method": "(§1) These examples illustrate the differentiation of bacteria using a tetrazolium salt and phenolic dye as the reducible compounds and two cyclic polypeptide antibiotics according to the present invention. The tetrazolium salt was 3-(4,5-dimethyl-2-thiazolyl) -2,5-diphenyl-2H-tetrazolium bromide (MTT) which forms a colored formazan dye when reduced. The phenolic dye was 2,6-dichloroindophenol (DCIP) which forms a colorless species when reduced.\n(§2) Solutions of the reducible compounds were prepared with the following: HEPES buffer (3 ml, 0.05 molar, pH 7.5), TRITON X-100 nonionic surfactant (1% concentration), glucose (50 μl of 10% in water), tryptose (50 μl of a 10% solution in water), MTT (25 μl of 5 mg/ml methanol) or DCIP (25 μl of 3 mg/ml methanol) and phenazine methosultate ETA (25 μl of 3 mg/ml methanol).\n(§3) Test solutions were prepared from the following: reducible compound solution from above (200 μl), 50 μl of either gramicidin S solution (6 mg/ml methanol and 9 ml of buffer) or tyrocidin solution (100 mg/ml methanol and 8 ml of buffer) and 50 μl of cell suspension. […] The change in optical density (ΔOD) was determined after 30 minutes at 37° C. at 540 nm for the MTT assay and at 620 nm for the DCIP assay using a commercially available spectrophotometer."}, "E. cloacae [2]": {"test_system": "E. cloacae", "experiment": "DCIP reduction solution assay, ΔOD 620 nm", "assay_type": "cell-based, Enterobacter cloacae", "conditions": "E. cloacae (-) 5×10^7, gramicidin S 0.00625 mg/ml, 37° C.", "method": "as §1, §2, §3"}, "P. aeruginosa": {"test_system": "P. aeruginosa", "experiment": "MTT reduction solution assay, ΔOD 540 nm", "assay_type": "cell-based, Pseudomonas aeruginosa", "conditions": "P. aeruginosa (-) 5×10^7, gramicidin S 0.00625 mg/ml, 37° C.", "method": "as §1, §2, §3"}, "K. pneumoniae": {"test_system": "K. pneumoniae", "experiment": "DCIP reduction solution assay, ΔOD 620 nm", "assay_type": "cell-based, Klebsiella pneumoniae", "conditions": "K. pneumoniae (-) 5×10^7, gramicidin S 0.00625 mg/ml, 37° C.", "method": "as §1, §2, §3"}, "[3]": {"test_system": "viable gram-positive and gram-negative bacteria", "experiment": "Differentiation with dry analytical element, overall result", "assay_type": "cell-based", "conditions": "dry analytical element with RIND IX", "method": "The element used had the format and components illustrated below\nThe appropriate cell suspension (10 μl) was applied to the spreading/reagent layer of each element. The reflection density (DR) was measured at 640 nm. After 10 minutes of incubation at 37° C., the DR was again measured, giving a ΔDr value. A Control solution (10 μl of either 0.5 molar HEPES or potassium phosphate buffer) was also applied to the elements and the ΔDR was similarly determined. The difference between the two ΔDR values gives a test value corrected for background."}, "S. faecalis": {"test_system": "S. faecalis", "experiment": "MTT reduction solution assay, ΔOD 540 nm", "assay_type": "cell-based, Streptococcus faecalis", "conditions": "S. faecalis (+) 5×10^7, gramicidin S 0.00625 mg/ml, 37° C.", "method": "as §1, §2, §3"}, "S. aureus [4]": {"test_system": "S. aureus", "experiment": "RIND VII reduction solution assay, ΔOD 635 nm", "assay_type": "cell-based, Staphylococcus aureus", "conditions": "S. aureus 7 × 10^7 /ml, antibiotic 10^-4 molar", "method": "Bacterial suspensions were prepared by growing the cells in BHT broth to stationary phase overnight at 37° C. P. auruginosa was grown with agitation. About 40 ml of each overnight culture was centrifuged, decanted and washed once with 0.05 molar potassium phosphate buffer or 0.05 molar N-2-hydroxy-ethylpiperazine-N'-2-ethanesulfonic acid (HEPES) buffer, pH 7.8, and resuspended in buffer.\nTERGITOL 7 anionic surfactant was used to differentiate viable bacteria according to the prior art method. Various concentrations of TERGITOL 7 surfactant were mixed with a 10% glucose solution (50 μl), 3-(4,5-dimethyl-2-thiazolyl)-2,5-diphenyl-2N-tetrazolium bromide (MTT) (25 μl at 5 mg/ml methanol) or a RIND VII dispersion (1.5 ml) and phenazine methosulfate ETA (25 μl at 3 mg/ml methanol). The volume of each test solution was brought to 3 ml with potassium phosphate buffer. A cell suspension (100 μl at about 10^8 cells/ml) was then added. The solutions were incubated at 37° C. for 15 and 30 minutes in the presence of either E. coli, a gram(-) bacterium, or S. aureus, a gram(+) bacterium. The amount of dye formed was then determined visually, and graded as follows: \"O\" indicates no dye formation, +/- indicates faint dye formation, 1+ indicates light dye formation, 2+ indicates moderate dye formation, 3+ indicates strong dye formation, and 4+ indicates very strong dye formation. […]"}, "[5]": {"test_system": "viable gram-positive and gram-negative bacteria", "experiment": "Differentiation in RIND XXIX solution assays, overall result", "assay_type": "cell-based", "conditions": "gramicidin S 0.1 mg/ml, tyrocidin 3.3 mg/ml", "method": "Each test solution contained the following: dispersion of RIND XXIX (25 μl) prepared as described above, glucose (400 μl of 10% aqueous solution), tryptose (400 μl of 10% aqueous solution), trimethyl-1,4-benzoquinone ETA (500 μl of 1.5 mg/ml methanol). Aliquots (200 μl) of the mixture were mixed with solutions of the antibiotics (50 μl). The cell suspensions (50 μl) were then added. The final concentration of gramcidin S and tyrocidin were 0.1 mg/ml and 3.3 mg/ml, respectively. The final cell concentration was about 5×10^7 cells/ml. Cell control solutions contained all reagents except antibiotics. Background controls consisted of both buffer and solution controls. The buffer control contained all reagents except antibiotics and cells. The solution control contained all reagents except cells.\nThe solutions were incubated at 37° C. for 30 minutes, and the change in fluorescence emission (Δ fluorescence) was determined as the difference between the readings taken when the solutions were first mixed and then after 30 minutes incubation. Measurements were made in a commercially available MICROFLUOR Reader (available from Dynatech Laboratories, Alexandria, Virginia, U.S.A.), modified with an excitation filter at 540 nm, an emission filter at 620 nm and a Xenon lamp.\nThis example illustrates the practice of this invention to identify a Proteus species in solution. Test solutions and cell control solutions were prepared and tested as described in Example 2 and 3 except that polymixin B was used at 0.01 mg/ml of methanol. The final cell concentration was about 5×10^7 cells/ml."}, "P. vulgaris": {"test_system": "P. vulgaris", "experiment": "DCIP reduction solution assay, ΔOD 620 nm", "assay_type": "cell-based, Proteus vulgaris", "conditions": "P. vulgaris (-) 5×10^7, gramicidin S 0.00625 mg/ml, 37° C.", "method": "as §1, §2, §3"}, "E. cloacae [6]": {"test_system": "E. cloacae", "experiment": "MTT reduction solution assay, ΔOD 540 nm", "assay_type": "cell-based, Enterobacter cloacae", "conditions": "E. cloacae (-) 5×10^7, gramicidin S 0.00625 mg/ml, 37° C.", "method": "as §1, §2, §3"}},
  "data": [
    {"substance": "gramicidin S", "values": [
      {"measurement": "ΔOD, 620 nm after 30 Minutes", "setting": "S. aureus [1]", "value": 0.096},
      {"measurement": "ΔOD, 620 nm after 30 Minutes", "setting": "E. cloacae [2]", "value": 0.997},
      {"measurement": "ΔOD, 540 nm after 30 Minutes", "setting": "P. aeruginosa", "value": 0.955},
      {"measurement": "ΔOD, 620 nm after 30 Minutes", "setting": "K. pneumoniae", "value": 1.062},
      {"measurement": "differentiation between viable gram-positive and gram-negative bacteria in an element, in words", "setting": "[3]", "value": "can be used in an element to differentiate between viable gram-positive and gram-negative bacteria"},
      {"measurement": "ΔOD, 540 nm after 30 Minutes", "setting": "S. faecalis", "value": 0.073},
      {"measurement": "Corrected ΔOD (15 Minutes)", "setting": "S. aureus [4]", "value": 0.107},
      {"measurement": "differentiation between viable gram-positive and gram-negative bacteria, in words", "setting": "[5]", "value": "can be used with RIND XXIX to differentiate between viable gram-positive and gram-negative bacteria"},
      {"measurement": "ΔOD, 620 nm after 30 Minutes", "setting": "P. vulgaris", "value": 1.029},
      {"measurement": "ΔOD, 540 nm after 30 Minutes", "setting": "E. cloacae [6]", "value": 0.931}
    ]}
  ]
}
